Measurements published in US9718828B2 (MERCK SHARP & DOHME CORP., priority 2011, dated 2017).
Where a name gives a salt, the structure may show the parent alone. Read-outs that look alike come from different tables or passages of the source.

Target: Btk enzyme (His-Btk) (Homo sapiens (Human), UniProt Q06187)
Test: Btk enzyme activity, IMAP fluorescence polarization assay (Assay Method A)
[1] = read-out: EC50 Btk activity values - Assay Method A, IMAP-FP, 60 min pre-incubation, 5 μM ATP, class 100-1000 is given as ≧100 nM-<1 μM

Sequence of Btk enzyme (His-Btk) (Q06187 whole entry): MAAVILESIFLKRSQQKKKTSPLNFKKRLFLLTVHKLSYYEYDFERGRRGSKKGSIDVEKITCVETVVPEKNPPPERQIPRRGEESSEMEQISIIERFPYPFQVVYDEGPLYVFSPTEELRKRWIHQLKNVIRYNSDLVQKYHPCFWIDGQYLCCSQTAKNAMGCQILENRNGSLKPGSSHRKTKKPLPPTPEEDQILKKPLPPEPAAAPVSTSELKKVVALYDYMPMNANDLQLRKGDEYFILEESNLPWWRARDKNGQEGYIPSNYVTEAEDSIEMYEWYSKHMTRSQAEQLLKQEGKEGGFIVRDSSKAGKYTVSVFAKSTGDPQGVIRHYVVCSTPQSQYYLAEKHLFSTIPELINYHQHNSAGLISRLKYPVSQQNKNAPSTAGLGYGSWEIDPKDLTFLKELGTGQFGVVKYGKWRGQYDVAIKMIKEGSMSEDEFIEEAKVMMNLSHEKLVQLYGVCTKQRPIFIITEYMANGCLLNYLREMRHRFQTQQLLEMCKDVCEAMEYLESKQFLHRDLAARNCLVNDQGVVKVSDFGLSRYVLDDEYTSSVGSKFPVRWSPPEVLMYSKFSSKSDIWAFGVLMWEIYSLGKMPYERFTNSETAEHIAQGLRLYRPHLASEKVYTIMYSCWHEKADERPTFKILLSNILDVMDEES
Protocol: Inhibition of kinase activity can be measured using the Immobilized Metal Assay for Phosphochemicals (IMAP) assay. IMAP is a homogeneous fluorescence polarization (FP) assay based on affinity capture of phosphorylated peptide substrates. IMAP uses fluorescein-labeled peptide substrates that, upon phosphorylation by a protein kinase, bind to so-called IMAP nanoparticles, which are derivatized with trivalent metal complexes.
Btk enzyme activity is measured using the IMAP (immobilized metal ion affinity-based fluorescence polarization) assay as outlined below.
Test compounds and Btk enzyme are pre-incubated 60 minutes at room temperature, before adding 5 μL/well of 200 nM Fluorescin labeled substrate peptide (Blk/Lyntide substrate, e.g. #R7188/#R7233, Molecular Devices) in KR-buffer. Final peptide substrate concentration in assay is 50 nM. […] Following incubation for 2 h at room temperature the enzyme reaction is stopped by adding 40 μL/well IMAP Progressive Binding Solution (according to suppliers (Molecular Devices) protocol using 75% 1× buffer A and 25% 1× buffer B with 1:600 Progressive Binding Solution). After 60 min incubation at room temperature in the dark the FP signal is read. […] Values are calculated as percentage of the difference in readout (ΔmPi) of the controls with and without ATP. EC50 values are determined by curve fitting of the experimental results using Activity Base.

SMILES | EC50 | EC50 [1] | also measured
C[C@@H]1CC[C@@H](c2nc(-c3ccc(C(=O)Nc4cc(C(F)(F)F)ccn4)cc3)c3c(N)nccn23)CN1C(=O)C1CC1 (relative stereo) [Example 188, 4-(8-amino-3-((trans)-1-(cyclopropanecarbonyl)-6-methylpiperidin-3-yl)imidazo[1,5-a]pyrazin-1-yl)-N-(4-(trifluoromethyl)pyridin-2-yl)benzamide, TFA salt] | 10 to 100 nM |  | 
C[C@H]1CC[C@@H](c2nc(-c3ccc(C(=O)Nc4ccccn4)cc3)c3c(N)nccn23)CN1C(=O)C1CC1 (relative stereo) [Example 192, 4-(8-amino-3-((cis)-1-(cyclopropanecarbonyl)-6-methylpiperidin-3-yl)imidazo[1,5-a]pyrazin-1-yl)-N-(pyridin-2-yl)benzamide, TFA salt] |  | < 10 nM | 
Nc1nccn2c([C@@H]3CCCN(CC4CCCC4)C3)nc(-c3ccc(C(=O)Nc4cc(C5CC5)ccn4)cc3)c12 [Example 143, (R)-4-(8-amino-3-(1-(cyclopentylmethyl)piperidin-3-yl)imidazo[1,5-a]pyrazin-1-yl)-N-(4-cyclopropylpyridin-2-yl)benzamide, TFA salt] | 10 to 100 nM |  | 
CC(C)C(=O)N1C[C@H](c2nc(-c3ccc(C(=O)Nc4ccccn4)cc3)c3c(N)nccn23)CC[C@@H]1C (relative stereo) [Example 205, 4-(8-amino-3-((cis)-1-isobutyryl-6-methylpiperidin-3-yl)imidazo[1,5-a]pyrazin-1-yl)-N-(pyridin-2-yl)benzamide, TFA salt] |  | < 10 nM | 
CC(CNC(=O)OCc1ccccc1)c1nc(-c2ccc(C(=O)Nc3cc(C(F)(F)F)ccn3)cc2)c2c(N)nccn12 (stereo not drawn) [Example 132, benzyl 2-(8-amino-1-(4-(4-(trifluoromethyl)pyridin-2-ylcarbamoyl)phenyl)imidazo[1,5-a]pyrazin-3-yl)propylcarbamate] | 10 to 100 nM |  | 
CC(C)CNC(=O)C(=O)N1CCC[C@@H](c2nc(-c3ccc(C(=O)Nc4cc(C5CC5)ccn4)cc3)c3c(N)nccn23)C1 [Example 112, (R)-4-(8-amino-3-(1-(2-(isobutylamino)-2-oxoacetyl)piperidin-3-yl)imidazo[1,5-a]pyrazin-1-yl)-N-(4-cyclopropylpyridin-2-yl)benzamide] | 10 to 100 nM |  | 
COCCOCCC(=O)N1CCC[C@@H](c2nc(-c3ccc(C(=O)Nc4cc(C(F)(F)F)ccn4)cc3)c3c(N)nccn23)C1 [Example 68, (R)-4-(8-amino-3-(1-(3-(2-methoxyethoxy)propanoyl)piperidin-3-yl)imidazo[1,5-a]pyrazin-1-yl)-N-(4-(trifluoromethyl)pyridin-2-yl)benzamide] | < 10 nM |  | 
CC1(C(=O)N2CCC[C@@H](c3nc(-c4ccc(C(=O)Nc5cc(C(F)(F)F)ccn5)cc4)c4c(N)ncc(/C=C/c5ccc(F)cc5)n34)C2)COC1 [Example 318, (R,E)-4-(8-amino-5-(4-fluorostyryl)-3-(1-(3-methyloxetane-3-carbonyl)piperidin-3-yl)imidazo[1,5-a]pyrazin-1-yl)-N-(4-(trifluoromethyl)pyridin-2-yl)benzamide] |  | < 10 nM | 
Nc1nccn2c(C3CCc4[nH]nc(C5CC5)c4C3)nc(-c3ccc(C(=O)Nc4cc(C(F)(F)F)ccn4)cc3)c12 (stereo not drawn) [Example 248, 4-(8-amino-3-(3-cyclopropyl-4,5,6,7-tetrahydro-1H-indazol-5-yl)imidazo[1,5-a]pyrazin-1-yl)-N-(4-(trifluoromethyl)pyridin-2-yl)benzamide] | < 10 nM |  | 
CC1(C(=O)N2CCC[C@@H](c3nc(-c4ccc(C(=O)Nc5cc(C(F)(F)F)ccn5)cc4)c4c(N)ncc(-c5ccco5)n34)C2)COC1 [Example 311, (R)-4-(8-amino-5-(furan-2-yl)-3-(1-(3-methyloxetane-3-carbonyl)piperidin-3-yl)imidazo[1,5-a]pyrazin-1-yl)-N-(4-(trifluoromethyl)pyridin-2-yl)benzamide] |  | < 10 nM | 
CC(C)C(=O)N[C@H]1CCC[C@@H](c2nc(-c3ccc(C(=O)Nc4cc(C(F)(F)F)ccn4)cc3)c3c(N)nccn23)C1 (relative stereo) [Example 159, 4-(8-amino-3-((cis)-3-isobutyramidocyclohexyl)imidazo [1,5-a]pyrazin-1-yl)-N-(4-(trifluoromethyl)pyridin-2-yl)benzamide] |  | < 10 nM | 
Nc1nccn2c([C@@H]3CCCN(C(=O)[C@H]4CC[C@H](N)CC4)C3)nc(-c3ccc(C(=O)Nc4ccccn4)cc3)c12 [Example 55, 4-(8-amino-3-((R)-1-((trans)-4-aminocyclohexanecarbonyl)piperidin-3-yl)imidazo[1,5-a]pyrazin-1-yl)-N-(pyridin-2-yl)benzamide, TFA salt] | 10 to 100 nM |  | 
Nc1nccn2c(N3CCCC(C(=O)NC[C@@H]4CCCO4)C3)nc(-c3ccc(C(=O)Nc4ccccn4)cc3)c12 (stereo partly drawn) [Example 227, 1-(8-amino-1-(4-(pyridin-2-ylcarbamoyl)phenyl)imidazo[1,5-a]pyrazin-3-yl)-N-(((S)-tetrahydrofuran-2-yl)methyl)piperidine-3-carboxamide, TFA salt] |  | < 10 nM | 
COC[C@H](C)NC(=O)C1CCCN(c2nc(-c3ccc(C(=O)Nc4ccccn4)cc3)c3c(N)nccn23)C1 (stereo partly drawn) [Example 235, 1-(8-amino-1-(4-(pyridin-2-ylcarbamoyl)phenyl)imidazo[1,5-a]pyrazin-3-yl)-N-((S)-1-methoxypropan-2-yl)piperidine-3-carboxamide, TFA salt] |  | < 10 nM | 
CC(C)C(=O)N1CCC[C@@H](c2nc(-c3ccc(C(=O)Nc4cc(C(F)(F)F)ccn4)cc3)c3c(N)nccn23)C1 [Example 104, (R)-4-(8-amino-3-(1-isobutyrylpiperidin-3-yl)imidazo[1,5-a]pyrazin-1-yl)-N-(4-(trifluoromethyl)pyridin-2-yl)benzamide] |  | < 10 nM | 
Nc1nccn2c(N3CCCC(C(=O)NCC4CC4)C3)nc(-c3ccc(C(=O)Nc4cc(C(F)(F)F)ccn4)cc3)c12 (stereo not drawn) [Example 233, 1-(8-amino-1-(4-(4-(trifluoromethyl)pyridin-2-ylcarbamoyl)phenyl)imidazo[1,5-a]pyrazin-3-yl)-N-(cyclopropylmethyl)piperidine-3-carboxamide, TFA salt] |  | < 10 nM | 
Nc1nccn2c([C@@H]3CCC[C@@H](NC(=O)C4CC4)C3)nc(-c3ccc(C(=O)Nc4cc(C(F)(F)F)ccn4)cc3)c12 (relative stereo) [Example 164, 4-(8-amino-3-((trans)-3-(cyclopropanecarboxamido)cyclohexyl)imidazo[1,5-a]pyrazin-1-yl)-N-(4-(trifluoromethyl)pyridin-2-yl)benzamide] |  | < 10 nM | 
CCNC(=O)N1C[C@H](c2nc(-c3ccc(C(=O)Nc4ccccn4)cc3)c3c(N)nccn23)CC[C@@H]1C (relative stereo) [Example 193, (cis)-5-(8-amino-1-(4-(pyridin-2-ylcarbamoyl)phenyl)imidazo [1,5-a]pyrazin-3-yl)-N-ethyl-2-methylpiperidine-1-carboxamide, TFA salt] |  | < 10 nM | 
C[C@H]1CC[C@@H](c2nc(-c3ccc(C(=O)Nc4cc(C5CC5)ccn4)cc3)c3c(N)nccn23)CN1C(=O)CN1CCOC1=O (relative stereo) [Example 196, 4-(8-amino-3-((cis)-6-methyl-1-(2-(2-oxooxazolidin-3-yl)acetyl)piperidin-3-yl)imidazo[1,5-a]pyrazin-1-yl)-N-(4-cyclopropylpyridin-2-yl)benzamide, TFA salt] |  | < 10 nM | 
CCc1cnc(NC(=O)c2ccc(-c3nc(C4CCOCC4)n4ccnc(N)c34)cc2)s1 [Example 28, 4-(8-amino-3-(tetrahydro-2H-pyran-4-yl)imidazo[1,5-a]pyrazin-1-yl)-N-(5-ethylthiazol-2-yl)benzamide] | 10 to 100 nM |  | 
Nc1ncc(Cl)n2c([C@@H]3CCCNC3)nc(-c3ccc(C(=O)Nc4cc(C(F)(F)F)ccn4)cc3)c12 [Example 307] |  |  | EC50 (read-out: EC50 Btk activity values - Assay Method A): < 10 nM
Nc1nccn2c([C@@H]3CCCN(C(=O)[C@H](O)CO)C3)nc(-c3ccc(C(=O)Nc4cc(C5CC5)ccn4)cc3)c12 [Example 289, 4-(8-amino-3-((R)-1-((R)-2,3-dihydroxypropanoyl)piperidin-3-yl)imidazo[1,5-a]pyrazin-1-yl)-N-(4-cyclopropylpyridin-2-yl)benzamide] |  | < 10 nM | 
CCC(=O)N1CCC2(CC1)CC2c1nc(-c2ccc(C(=O)Nc3ccccn3)cc2)c2c(N)nccn12 (stereo not drawn) [Example 153, 4-(8-amino-3-(6-propionyl-6-azaspiro[2.5]octan-1-yl)imidazo[1,5-a]pyrazin-1-yl)-N-(pyridin-2-yl)benzamide] | 100 to 1000 nM |  | 
Cc1nc(-c2ccc(C(=O)Nc3cc(C(F)(F)F)ccn3)cc2)c2c(N)ncc(C(O)CC(C)C)n12 (stereo not drawn) [Example 323, 4-(8-amino-5-(1-hydroxy-3-methylbutyl)-3-methylimidazo[1,5-a]pyrazin-1-yl)-N-(4-(trifluoromethyl)pyridin-2-yl)benzamide] | 10 to 100 nM |  | 
CONC(=O)C1CCCN(c2nc(-c3ccc(C(=O)Nc4cc(C(F)(F)F)ccn4)cc3)c3c(N)nccn23)C1 (stereo not drawn) [Example 242, 1-(8-amino-1-(4-(4-(trifluoromethyl)pyridin-2-ylcarbamoyl)phenyl)imidazo[1,5-a]pyrazin-3-yl)-N-methoxypiperidine-3-carboxamide, TFA salt] |  | < 10 nM | 
COCCC(=O)N1CCOC(c2nc(-c3ccc(C(=O)Nc4cc(C(F)(F)F)ccn4)cc3)c3c(N)ncc(Cl)n23)C1 (stereo not drawn) [Example 314, 4-(8-amino-5-chloro-3-(4-(3-methoxypropanoyl)morpholin-2-yl)imidazo[1,5-a]pyrazin-1-yl)-N-(4-(trifluoromethyl)pyridin-2-yl)benzamide] |  | < 10 nM | 
CC(C)(CO)C(=O)N1CCC[C@@H](c2nc(-c3ccc(C(=O)Nc4cc(C(F)(F)F)ccn4)cc3)c3c(N)nccn23)C1 [Example 78, (R)-4-(8-amino-3-(1-(3-hydroxy-2,2-dimethylpropanoyl)piperidin-3-yl)imidazo[1,5-a]pyrazin-1-yl)-N-(4-(trifluoromethyl)pyridin-2-yl)benzamide] | < 10 nM |  | 
